Measurements published in EP0168965B1, “4(5)-substituted imidazoles” (ELI LILLY AND COMPANY, priority 1984, dated 1986).

Assays:
[1] = test system: synthesis of estrogens; assay: Estrogen synthesis inhibition in rats (uterine weight and ovarian steroid concentrations); type: in vivo, Immature female Wistar rats; settings: for Mean Steroid Concentration estradiol / Mean Steroid Concentration estriol / Mean Steroid Concentration estrone: ovaries
Method: Immature female Wistar rats (45-55 grams) were divided into control and test groups of 4-5 animals each. Test compounds were administered for seven days daily by gavage in corn oil. Control animals received corn oil without the test compound. Beginning on the fourth day of the test, all animals treated with the test compound and one half of the control animals were given a subcutaneous injection of 1.0 mg of testosterone propionate in corn oil. The remaining control animals received only an equivalent volume of corn oil. On the seventh day of the test, rats treated with testosterone propionate were injected subcutaneously with 100 µCi of [^3H]-testosterone in 50 pl of 3:1 (v/v) saline-ethanol.
After two hours, the animals were killed by decapitation. Uteri were isolated, trimmed of extraneous connective tissue, and weighed. […] In the control animals treated with testosterone propionate, estrogens produced by aromatization stimulated the uterus resulting in an increase in weight.
Ovaries from rats treated with [^3H]-testosterone were excised, cleaned of extraneous tissue, and homogenized in 2.5 ml of a 1.0 mM potassium phosphate buffer containing 3.0 mM MgC12-6H20, 320 mM sucrose, and 0.25% Triton X-100 (polyethylene glycol p-isooctyl phenyl ether, Rohm and Haas) at pH 6.5. The ovarian steroids were extracted with 1.5 ml of 9:1 (v/v) toluene/ethanol to which had been added 25 to 100 mcg each of unlabelled estradiol, estriol, and estrone, and approximately 1000 dpm of [^14C]-estradiol. The samples were vortexed, centrifuged at 500 x g for 10 minutes, and the organic phase was transferred to a conical vial. Two additional extractions were performed on the residue in the same way. The pooled organic extracts were evaporated for subsequent thin-layer chromatography.
Ovarian proteins were precipitated by the addition of 5.0 ml of ethanol to the remaining aqueous phase. After an overnight incubation at 4°C, the samples were centrifuged at 1500 x g for 10 minutes. The supernatant was discarded and the pellet was dissolved in 0.3 N potassium hydroxide. Protein was determined according to the method of Bradford, Analytical Biochemistry, 72, 248 (1976).
The organic residue from each above extraction was redissolved in 9:1 (v/v) dichioromethane/ methanol. The solution of each sample was applied to separate silica gel thin layer chromatography plates which contained a fluorescent indicator. The plates were developed in the first dimension with 160:38:1.5:0.5 (v/v/v/v) dichloromethane/ethyl acetate/methanol/acetic acid to within 3 cm of the top of the plate. After air-drying, the plate was developed in the second dimension with 180:19:1 (v/v/v) dichloromethane/methanol/ammonium hydroxide. The plate was air-dried and viewed under 254 nm UV light.
The visible spots were marked and the plates were sprayed with primulin (0.001% in 4:1 v/v acetone/ water) according to the method of Wright, J. Chromatography, '59, 220 (1971) which allowed for the identification of additional steroids under 365 nm UV light. The spots were scraped from the plate using a glass wool plugged Pasteur pipet attached to a vacuum line. The steroids were eluted directly into scintillation vials by the addition of 0.2 ml of dichloromethane followed by two washes each of 2.0 ml of methanol. The organic solvent was evaporated and 10.0 ml of scintillation fluid (Beckman Ready Solv-NA) was added to the vials. Samples were analyzed by liquid scintillation spectrometry. Corrections were made based on the recoveries of the [^14C]-steroid. Steroid concentrations are expressed as femtomoles per milligram protein.

[2] = biological target: T1, aromatase (Rattus norvegicus, UniProt P22443); assay: Aromatase inhibition in the rat ovarian microsome assay; type: biochemical; settings: read-out: EC50 (the source's name)
T1 construct: ovarian microsomes are obtained from rats treated with pregnant mares serum gonadotropin; from tissue; host or cells: rat ovarian microsomes (rats treated with pregnant mares serum gonadotropin)
T1 sequence (P22443 1-508): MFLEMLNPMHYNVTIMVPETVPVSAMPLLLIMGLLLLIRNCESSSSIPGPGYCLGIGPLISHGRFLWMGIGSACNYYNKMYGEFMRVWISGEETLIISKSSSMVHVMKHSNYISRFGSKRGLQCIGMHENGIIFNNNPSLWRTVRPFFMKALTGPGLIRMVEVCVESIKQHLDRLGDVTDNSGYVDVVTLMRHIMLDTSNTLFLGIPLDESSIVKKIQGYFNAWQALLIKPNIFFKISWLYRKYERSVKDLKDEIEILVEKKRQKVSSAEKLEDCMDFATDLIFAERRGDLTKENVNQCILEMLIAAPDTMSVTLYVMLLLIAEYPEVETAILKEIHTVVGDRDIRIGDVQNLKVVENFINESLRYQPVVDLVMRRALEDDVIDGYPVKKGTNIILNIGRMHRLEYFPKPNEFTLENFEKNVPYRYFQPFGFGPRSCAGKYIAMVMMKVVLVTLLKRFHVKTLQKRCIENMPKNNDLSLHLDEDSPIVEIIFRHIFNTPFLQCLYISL
Method: In this test system, ovarian microsomes are obtained from rats treated with pregnant mares serum gonadotropin. Test compounds are added to reaction vials containing 0.1 µM 4-androstene-3,17-dione, 100,000 dpm 1,2[^3H]-androstenedione, the microsomes and a NADPH generating system. The concentrations of the inhibitors tested ranged between 0.005 and 10 um.

[3] = 1 mg/kg p.o. by gavage daily for seven days
[4] = 3 mg/kg p.o. by gavage daily for seven days
[5] = 10 mg/kg p.o. by gavage daily for seven days
[6] = 30 mg/kg p.o. by gavage daily for seven days
[7] = 100 mg/kg p.o. by gavage daily for seven days

## OC(c1ccc(Cl)cc1)(c1ccc(Cl)cc1)c1c[nH]cn1 [Example 3, a,a-bis(4-chlorophenyl)-4(5)-imidazolemethanol]
[1]; [3]
  Mean Steroid Concentration estradiol: 0.35 femtomoles per milligram of protein
  Mean Steroid Concentration estriol: 0.132 femtomoles per milligram of protein
  Mean Steroid Concentration estrone: 0.00 femtomoles per milligram of protein
[1]; 1 mg/kg p.o. by gavage daily for seven days, testosterone propionate-treated rats
  Mean Uterine Weight: 214.2 mg
[1]; [4]
  Mean Steroid Concentration estradiol: 0.31 femtomoles per milligram of protein
  Mean Steroid Concentration estriol: 0.383 femtomoles per milligram of protein
  Mean Steroid Concentration estrone: 0.05 femtomoles per milligram of protein
[1]; 3 mg/kg p.o. by gavage daily for seven days, testosterone propionate-treated rats
  Mean Uterine Weight (mg): 158.8^+ mg
[1]; [5]
  Mean Steroid Concentration estradiol: 0.19^+ femtomoles per milligram of protein
  Mean Steroid Concentration estriol: 0.218 femtomoles per milligram of protein
  Mean Steroid Concentration estrone: 0.03 femtomoles per milligram of protein
[1]; 10 mg/kg p.o. by gavage daily for seven days, testosterone propionate-treated rats
  Mean Uterine Weight (mg): 131.2^+ mg
[1]; [6]
  Mean Steroid Concentration estradiol: 0.22 femtomoles per milligram of protein
  Mean Steroid Concentration estriol: 0.391 femtomoles per milligram of protein
  Mean Steroid Concentration estrone: 0.07 femtomoles per milligram of protein
[1]; 30 mg/kg p.o. by gavage daily for seven days, testosterone propionate-treated rats
  Mean Uterine Weight (mg): 96.2^+ mg
[1]; [7]
  Mean Steroid Concentration estradiol: 0.10^+ femtomoles per milligram of protein
  Mean Steroid Concentration estriol: 0.534^+ femtomoles per milligram of protein
  Mean Steroid Concentration estrone: 0.36^+ femtomoles per milligram of protein
[1]; 100 mg/kg p.o. by gavage daily for seven days, testosterone propionate-treated rats
  Mean Uterine Weight (mg): 79.5^+ mg

## Fc1ccc(C(c2ccc(F)cc2)c2c[nH]cn2)cc1 [Example 1, 4(5)-[Bis(4-fluorophenyl)methyl]-1H-imidazole]
[2]
  IC50: < 50 nM

## Fc1ccc(C(c2ccc(Cl)cc2)c2c[nH]cn2)cc1 (stereo not shown) [Example 2, 4(5)-[(4-Chlorophenyl)(4-fluorophenyl)methyl]imidazole]
[2]
  IC50: < 50 nM
